“Also recorded” adds a separate entry of the source.
What was measured:
tropoelastin = assay: Metabolically labeled tropoelastin in cell extracts and conditioned media (secretion); type: cell-based, human; conditions: 10 nmol/L insulin, 1 hour
Protocol: Cells were plated in 35-mm dishes at a density of 100,000 cells per dish and were grown to confluency. Two microcuries [3H]-valine per milliliter fresh medium supplemented with 2% FBS was added 2 hours before the indicated treatments. At the end of each experiment, the conditioned medium was collected and subjected to immunoprecipitation using anti-tropoelastin antibody. The cell layers were washed with PBS and incubated using radioimmunoprecipitation lysis buffer for 10 minutes on ice. After centrifugation, the supernatants were collected and subjected to immunoprecipitation using anti-tropoelastin antibody. […] Final results (counts per minute) reflecting the total amount of [3H]-valine-labeled insoluble elastin in individual cultures were normalized per their DNA contents (assessed using the Qiagen […] isolation) Tissue Kit) and expressed as percentage of control values. At the end of all treatments, cells from quadruplicate cultures in each experimental group were lysed using NP40 cell lysis buffer (Invitrogen Corp.). Thirty micrograms of protein extracts from each sample was suspended in standard sample buffer, resolved on 4% to 12% gradient SDS-PAGE gels, transferred to nitrocellulose membranes, and subjected to Western blotting using antibodies. At the end of indicated treatments, the cultured cells were lysed as described, and 300 μL aliquots of cell extracts containing […] were incubated at 4° C. for 3 hours with the aliquots of protein G bound DYNABEADS® (Invitrogen Corp.) that were conjugated with either rabbit polyclonal anti-tropoelastin, goat polyclonal anti-Glut10, or rabbit polyclonal anti-S-Gal antibodies. The beads carrying the final immunoprecipitation products were then washed with PBS, resuspended in sample buffer, and boiled for 5 minutes. The released proteins were then resolved on SDS-PAGE gel and subjected to Western blotting using indicated antibodies.

[1] = tested on: human aortic SMCs (AoSMCs); assay: Cell proliferation ([3H]-thymidine incorporation and Ki-67 immunodetection); type: cell-based; conditions: 48-hour AoSMC cultures, 0.5 to 100 nmol/L insulin
Protocol: Cells were plated in 35-mm culture dishes (100,000 cells per dish) containing DMEM supplemented with 5% FBS. The cultures were grown to 70% to 80% confluency and serum-starved overnight to synchronize the cell cycles. […] The total amount of [3H]-thymidine-labeled DNA in individual cultures was then assessed via scintillation counting. […] The cultures were counterstained with hematoxylin. In each experimental group, quadruplicate cultures were examined under 200× magnification. The percentage of positively stained cells was determined and averaged over the 30 fields examined.

IGF-1R = target: T1, IGF-1R (Homo sapiens, UniProt P08069); assay: Immunoprecipitation and anti-phospho-Tyr blotting of IGF-1R; type: cell-based; conditions: 30 minutes, 0.5 to 10 nmol/L insulin or 10 nmol/L IGF-1, AoSMCs
T1 construct: 30-minute treatment of cultured AoSMCs; endogenous in cells; host or cells: human aortic smooth muscle cells (AoSMCs), second passage
Protocol: At the end of indicated treatments, the cultured cells were lysed as described, and 300 μL aliquots of cell extracts containing 300 μL proteins were incubated at 4° C. for 3 hours with the aliquots of protein G bound DYNABEADS® (Invitrogen Corp.) that were conjugated with either rabbit polyclonal anti-tropoelastin, goat polyclonal anti-Glut10, or rabbit polyclonal anti-S-Gal antibodies. The beads carrying the final immunoprecipitation products were then washed with PBS, resuspended in sample buffer, and boiled for 5 minutes. The released proteins were then resolved on SDS-PAGE gel and subjected to Western blotting using indicated antibodies.

retinoblastoma protein = assay: Western blotting of retinoblastoma protein phosphorylation; type: cell-based, human; conditions: 30-minute treatment, 10 nmol/L insulin
From the text: (§1) At the end of all treatments, cells from quadruplicate cultures in each experimental group were lysed using NP40 cell lysis buffer (Invitrogen Corp.). Thirty micrograms of protein extracts from each sample was suspended in standard sample buffer, resolved on 4% to 12% gradient SDS-PAGE gels, transferred to nitrocellulose membranes, and subjected to Western blotting using antibodies.

cdk-2 = assay: Western blotting of cdk-2 phosphorylation; type: cell-based, human; conditions: 30-minute treatment, 10 nmol/L insulin
From the text: as §1

FoxO1 = FoxO1 binding to elastin gene promoter DNA probe (FRE) on DYNABEADS; type: cell-based, human
Protocol: Cells were then scraped, and their nuclear extracts were pre-pared using an isolation kit (Active Motif, Inc.). […] The equal molar amounts of both single-stranded DNA oligonucleotides were annealed in Tris-EDTA buffer (10 mmol/L Tris-HCl, 1 mmol/L EDTA (pH 8.0)) to form the double-stranded DNA probe. […] All preparations were subsequently incubated for 2 hours in 200 μL binding buffer (50 mmol/L KCl, 10% glycerol, 20 mmol/L HEPES (pH 7.9), 1 mmol/L MgCl2, 1 mmol/L DTT, 0.1 μg poly(DI-DC) (polydeoxyinosinic-deoxycytidylic), and proteinase inhibitors). After binding, the beads were washed four times in the same binding buffer, without poly(DI-DC). The bound proteins were resolved using 8% SDS-PAGE and probed using Western blotting with the anti-FoxO1 monoclonal antibody.

[2] = after 2 hours [3H]-valine and BAPN, serum-free
[3] = after 3 hours [3H]-valine and β-aminopropionitrile, 2% FBS

insulin
immunodetected soluble tropoelastin in conditioned media vs untreated (tropoelastin; [2]): significantly more | metabolically labeled soluble tropoelastin in cell extracts vs untreated (tropoelastin; [2]): significantly less | less metabolically labeled tropoelastin in cell layer extracts than untreated controls (tropoelastin; [3]): 66%±6% | more metabolically labeled tropoelastin in conditioned media than untreated counterparts (tropoelastin; [3]): 94%±4% | basic proliferative rate ([3H]-thymidine incorporation, Ki-67) [1]: did not induce any up-regulation | phosphorylation of IGF-1R (IGF-1R): did not affect phosphorylation | site-specific phosphorylation of retinoblastoma protein on threonine 821 (retinoblastoma protein): did not | phosphorylation of cdk-2 on tyrosine 160 (cdk-2): did not induce phosphorylation | binding of FoxO1 from nuclear extracts to elastin promoter FRE DNA probe (FoxO1; AoSMCs treated 30 minutes with 10 nmol/L insulin, or preincubated with LY294002): could not sequester FoxO1; also recorded: could not bind FoxO1 | reversal by insulin of FoxO1 binding to the probe in LY294002-treated cells (FoxO1; LY294002 preincubation, consecutive insulin): could not reverse this interaction

Source: US20150359854A1 (HUMAN MATRIX SCIENCES, LLC, priority 2012, published 2015)
